Results as given in PubChem BioAssay (NCI).
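Cultured in 96-well plates, cells were exposed to test compound for 48 hours across five concentrations. At the GI50, growth is halved. At the TGI there is no net growth.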 Where a SMILES comes first, the peptide text is derived from it. [ ]: non-standard residue; d: D form. 2Nal = N[CH](Cc1ccc2ccccc2c1)C(=O)O

Experiments:
Assay in all cases: NCI-60 cell line screen, 48 h
[1] = test system: TK-10 renal
[2] = test system: LOX IMVI melanoma
[3] = test system: OVCAR-8 ovarian
[4] = test system: COLO 205 colon
[5] = test system: SF-268 CNS
[6] = test system: KM12 colon
[7] = test system: OVCAR-4 ovarian
[8] = test system: IGROV1 ovarian
[9] = test system: NCI/ADR-RES ovarian
[10] = test system: MDA-MB-231 breast

Structure (SMILES)	TGI [1] [µM]	TGI [2] [µM]	TGI [3] [µM]	TGI [4] [µM]	TGI [5] [µM]	TGI [6] [µM]	TGI [7] [µM]	TGI [8] [µM]	GI50 [9] [µM]	TGI [9] [µM]	GI50 [2] [µM]	GI50 [3] [µM]	GI50 [4] [µM]	GI50 [5] [µM]	GI50 [10] [µM]	TGI [10] [µM]	GI50 [6] [µM]	GI50 [7] [µM]	GI50 [8] [µM]	GI50 [1] [µM]
CC1=C2[C@H](c3ccccc3)C3C=CC2(c2ccccc23)N(C(=O)C(c2ccccc2)c2ccccc2)C1=O (stereo partly drawn)	> 100	> 100	> 100	> 100	> 100	> 100	> 100	> 100	–	–	–	–	–	–	–	–	–	–	–	–
Cc1cc(C)nc(NS(=O)(=O)c2ccc(NC(=O)c3ccc(Cl)c4c(Nc5ccc(S(=O)(=O)N=C(N)N)cc5)c5ccccc5nc34)cc2)n1	> 100	44.4	> 100	> 100	> 100	> 100	> 100	> 100	–	–	–	–	–	–	–	–	–	–	–	–
C=C1C(=O)OC2C1C(OC(=O)/C(C)=C\C)CC1(CO1)C1C(O)C=C(C)C21O (stereo not drawn)	9.35	30.6	6.03	2.62	17.4	24.4	20.7	29.7	–	–	–	–	–	–	–	–	–	–	–	–
O=C(NNC(=S)Nc1ccccc1)c1ccccn1	–	> 100	> 100	> 100	> 100	> 100	> 100	> 100	2.84	> 100	2.31	2.69	4.05	2.66	3.85	> 100	3.9	1.46	3	–
CCOC(=O)c1c2cccccc2n2c(=O)cc(C)nc12	> 100	> 100	> 100	> 100	> 100	> 100	> 100	> 100	–	–	–	–	–	–	–	–	–	–	–	–
COc1ccc(/C=c2/sc3n(c2=O)NC(c2ccc(Cl)cc2)NN=3)cc1 (stereo not drawn)	> 100	> 100	> 100	> 100	> 100	> 100	> 100	> 100	–	–	–	–	–	–	–	–	–	–	–	–
COC(=O)C1=C(O)[C@H](C(=O)OC)[C@]2(O)[C@@H](C(=O)OC)[C@H]1C[C@@H](c1ccc(OC(=O)/C=C/c3ccco3)cc1)[C@@H]2C(=O)OC	> 100	3.17	> 100	87.9	> 100	> 100	–	–	12.3	32.2	1.59	42.4	15	40.8	–	–	43.7	–	–	47.1
CC(=O)C1CCC2C3CC=C4CC(SC(=N)N)CCC4(C)C3CCC12C (stereo not drawn)	3.17	–	–	2.94	16.1	–	4.8	–	2	5.28	–	–	1.6	3.11	–	–	–	1.85	–	1.69
CC(C)C(NC(=O)C(CCCCN)NC(=O)C(Cc1c[nH]c2ccccc12)NC(=O)C(Cc1ccc(O)cc1)NC(=O)C(CS)NC(=O)C(N)Cc1ccc2ccccc2c1)C(=O)NC(CS)C(=O)NC(C(N)=O)C(C)O (stereo not drawn) (H-[2Nal]CYWKVCT-NH2; configuration not given here)	–	> 12.5	> 100	> 100	> 12.5	> 100	> 100	> 100	–	> 12.5	–	> 100	> 100	–	–	> 12.5	> 100	> 100	> 100	–
CN(C)CCC1(C2=CCCC2)CC/C(=C\c2ccccc2Cl)C1=O (stereo not drawn)	33.5	–	29.3	41	28.7	27.3	25.8	37.5	–	–	–	–	–	–	–	–	–	–	–	–
CCCCCCCCCOC(=S)NCCCCC	56.4	29.4	> 100	–	> 100	–	> 100	> 100	–	–	–	–	–	–	–	–	–	–	–	–
COC(=O)C(=O)C(C(=O)C=C(C)C)C(=O)C(=O)Nc1nc2ccc([N+](=O)[O-])cc2s1 (stereo not drawn)	> 100	> 100	> 100	> 100	> 100	> 100	> 100	66.4	–	–	–	–	–	–	–	–	–	–	–	–
COc1cc(CC(C(=O)O)C(=O)O)c(OC)cc1CC(C(=O)O)C(=O)O	> 100	> 100	> 100	> 100	> 100	> 100	> 100	> 100	–	–	–	–	–	–	–	–	–	–	–	–
NNC(=O)N/N=C1\C(=O)N(c2nccs2)C(=O)C(=O)C1c1nc2ccccc2s1 (stereo not drawn)	> 100	> 100	> 100	> 100	> 100	> 100	> 100	> 100	–	–	–	–	–	–	–	–	–	–	–	–
OC1CCC[C@@H]1Sc1ccccc1 (stereo partly drawn)	> 100	> 100	> 100	> 100	> 100	> 100	> 100	–	–	–	–	–	–	–	–	–	–	–	–	–
CC(=O)ON(C(C)=O)C1C(COC(c2ccccc2)(c2ccccc2)c2ccccc2)OC2OC3(CCCC3)OC21 (stereo not drawn)	> 100	21.3	> 100	> 100	> 100	> 100	> 100	> 100	–	–	–	–	–	–	–	–	–	–	–	–
COc1ccc(NC(=O)CCc2cc(C(C)(C)C)n[nH]2)cc1	> 100	> 100	> 100	> 100	> 100	> 100	–	> 100	–	–	–	–	–	–	–	–	–	–	–	–
COc1cc(/C=C\c2ccc(OC(C)=O)cc2)cc(OC)c1OC	–	–	> 100	94.2	> 100	> 100	> 100	> 100	–	–	–	–	–	–	–	–	–	–	–	–
COC(=O)C(=O)C(C(=O)C(=O)Nc1ccc(C)cc1)c1nc2ccc(C(=O)c3ccccc3)cc2[nH]c1=O (stereo not drawn)	> 100	> 100	> 100	–	> 100	> 100	> 100	> 100	–	> 100	–	–	–	–	–	> 100	–	–	–	–
CC1=NN(C(=O)c2ccc(Cl)cc2)C(=O)/C1=C/c1ccco1	> 100	> 100	> 100	> 100	> 100	> 100	> 100	> 100	–	–	–	–	–	–	–	–	–	–	–	–
Cc1ccc(/C=C(\C#N)c2ccccc2)cc1	> 100	> 100	> 100	> 100	> 100	> 100	> 100	> 100	–	–	–	–	–	–	–	–	–	–	–	–
CCCCCCCCCCCCCC(=O)OCC1OC(n2cc(F)c(=O)[nH]c2=O)C(N)C(OC(=O)CCCCCCCCCCCCC)C1O (stereo not drawn)	> 100	> 100	> 100	> 100	> 100	> 100	> 100	–	–	–	–	–	–	–	–	–	–	–	–	–
